Measurements published in US20240116985A1, “STAPLED PEPTIDES AND METHODS THEREOF” (priority 2020, published 2024).
Converted amounts (≈) assume the structure as drawn.

Key:
Solubility in PBS = type: physicochemical
Outline: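 Steps: ultracentrifuge the peptide PBS solution, inject the supernatant on HPLC, inject a 50 μM peptide DMSO solution as reference, then calculate solubility as area ratio (PBS/DMSO) × 50 uM.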

CHI Log D procedure = type: physicochemical; conditions: pH 7.4

SMILES | Solubility (Solubility in PBS) | CHI Log D (CHI Log D procedure)
CC(=O)N1CCC[C@]12CC=CCCCC1(CCCC=CCCCCCC[C@@](C)(C(=O)N[C@@H](Cc3ccccc3)C(=O)N[C@@H](Cc3c[nH]c4ccccc34)C(=O)N[C@@H](CCC(N)=O)C(N)=O)NC(=O)[C@H](C(C)C)NC(=O)[C@H](Cc3ccccc3)NC(=O)[C@H](C)NC(=O)[C@H](C)NC(=O)[C@H](CC(=O)O)NC(=O)[C@H](C)NC1=O)NC(=O)[C@H](C)NC(=O)[C@H](CC(=O)O)NC2=O (stereo partly drawn) [I-350, Ac-PL3-Asp-Ala-B5-Ala-Asp-Ala-Ala-Phe-Val-S8-Phe-Trp-Gln-NH2] | 48 µM (≈ 83.4 µg/mL) | 2.887
CC(=O)N1CCC[C@]12CC=CCCCC1(CCCC=CCCCCCC[C@@](C)(C(=O)N[C@@H](Cc3ccccc3)C(=O)N[C@@H](Cc3c[nH]c4ccccc34)C(=O)N[C@@H](CCC(N)=O)C(N)=O)NC(=O)[C@H](C(C)C)NC(=O)[C@H](Cc3ccccc3)NC(=O)[C@H](C)NC(=O)[C@H](C)NC(=O)[C@H](CC(=O)O)NC(=O)[C@H](C)NC1=O)NC(=O)[C@H](C)NC(=O)[C@H](CC(=O)O)NC2=O (stereo partly drawn) [I-351, Ac-PL3-Asp-Ala-B5-Ala-Asp-Ala-Ala-Phe-Val-S8-Phe-Trp-Gln-NH2] | 50 µM (≈ 86.9 µg/mL) | 2.944
CC(=O)N1CCC[C@]12CC=CCCCC1(CCCC=CCCCCCC[C@@](C)(C(=O)N[C@@H](C)C(=O)N[C@@H](Cc3c[nH]c4ccccc34)C(=O)N[C@@H](CCC(N)=O)C(N)=O)NC(=O)[C@H](C(C)C)NC(=O)[C@H](Cc3ccccc3)NC(=O)[C@H](C)NC(=O)[C@H](C)NC(=O)[C@H](CC(=O)O)NC(=O)[C@H](CC(=O)O)NC1=O)NC(=O)[C@H](C)NC(=O)[C@H](CC(=O)O)NC2=O (stereo partly drawn) [I-355, Ac-PL3-Asp-Ala-B5-Asp-Asp-Ala-Ala-Phe-Val-S8-Ala-Trp-Gln-NH2] | 49 µM (≈ 83.5 µg/mL) | 1.606
CC(=O)N1CCC[C@]12CC=CCCCC1(CCCC=CCCCCCC[C@@](C)(C(=O)N[C@@H](Cc3ccccc3)C(=O)N[C@@H](C)C(=O)N[C@@H](CCC(N)=O)C(N)=O)NC(=O)[C@H](C(C)C)NC(=O)[C@H](Cc3ccccc3)NC(=O)[C@H](C)NC(=O)[C@H](C)NC(=O)[C@H](CC(=O)O)NC(=O)[C@H](CC(=O)O)NC1=O)NC(=O)[C@H](C)NC(=O)[C@H](CC(=O)O)NC2=O (stereo partly drawn) [I-358, Ac-PL3-Asp-Ala-B5-Asp-Asp-Ala-Ala-Phe-Val-S8-Phe-Ala-Gln-NH2] | 50 µM (≈ 83.3 µg/mL) | 1.882
CC(=O)N1CCC[C@]12CC=CCCCC1(CCCC=CCCCCCC[C@@](C)(C(=O)N[C@@H](Cc3ccccc3)C(=O)N[C@@H](Cc3csc4ccccc34)C(=O)N[C@@H](CCC(N)=O)C(N)=O)NC(=O)[C@H](C)NC(=O)[C@H](Cc3c[nH]cn3)NC(=O)[C@H](C)NC(=O)[C@H](C)NC(=O)[C@H](CC(=O)O)NC(=O)[C@H](CC(=O)O)NC1=O)NC(=O)[C@H](C)NC(=O)[C@H](CC(=O)O)NC2=O (stereo partly drawn) [I-363, Ac-PL3-Asp-Ala-B5-Asp-Asp-Ala-Ala-His-Ala-S8-Phe-BztA-Gln-NH2] | 32 µM (≈ 56.3 µg/mL) | 2.09
CC(=O)N1CCC[C@]12CC=CCCCC1(CCCC=CCCCCCC[C@@](C)(C(=O)N[C@@H](Cc3ccccc3)C(=O)N[C@@H](Cc3csc4ccccc34)C(=O)N[C@@H](CCC(N)=O)C(N)=O)NC(=O)[C@H](C)NC(=O)[C@H](Cc3c[nH]cn3)NC(=O)[C@H](C)NC(=O)[C@H](C)NC(=O)[C@H](CC(=O)O)NC(=O)[C@H](CC(=O)O)NC1=O)NC(=O)[C@H](C)NC(=O)[C@H](CC(=O)O)NC2=O (stereo partly drawn) [I-364, Ac-PL3-Asp-Ala-B5-Asp-Asp-Ala-Ala-His-Ala-S8-Phe-BztA-Gln-NH2] | 26 µM (≈ 45.8 µg/mL) | 2.137
CC(=O)N1CCC[C@]12CC=CCCCC1(CCCC=CCCCCCC[C@@](C)(C(=O)N[C@@H](Cc3ccccn3)C(=O)N[C@@H](Cc3csc4ccccc34)C(=O)N[C@@H](CCC(N)=O)C(N)=O)NC(=O)[C@H](C(C)C)NC(=O)[C@H](Cc3ccccc3)NC(=O)[C@H](C)NC(=O)[C@H](C)NC(=O)[C@H](CCC(=O)O)NC(=O)[C@H](CC(=O)O)NC1=O)NC(=O)[C@H](C)NC(=O)[C@H](CC(=O)O)NC2=O (stereo partly drawn) [I-383, Ac-PL3-Asp-Ala-B5-Asp-Glu-Ala-Ala-Phe-Val-S8-2pyrA-BztA-Gln-NH2] | 36 µM (≈ 65.3 µg/mL) | 1.859
CC(=O)N1CCC[C@]12CC=CCCCC1(CCCC=CCCCCCC[C@@](C)(C(=O)N[C@@H](Cc3ccccc3)C(=O)N[C@@H](Cc3csc4ccccc34)C(=O)N[C@@H](CCC(N)=O)C(N)=O)NC(=O)[C@H](C(C)C)NC(=O)[C@H](Cc3ccccn3)NC(=O)[C@H](C)NC(=O)[C@H](C)NC(=O)[C@H](CCC(=O)O)NC(=O)[C@H](CC(=O)O)NC1=O)NC(=O)[C@H](C)NC(=O)[C@H](CC(=O)O)NC2=O (stereo partly drawn) [I-386, Ac-PL3-Asp-Ala-B5-Asp-Glu-Ala-Ala-2pyrA-Val-S8-Phe-BztA-Gln-NH2] | 47 µM (≈ 85.2 µg/mL) | 2.14
CC(=O)N1CCC[C@]12CC=CCCCC1(CCCC=CCCCCCC[C@@](C)(C(=O)N[C@@H](Cc3cccc(F)c3F)C(=O)N[C@@H](Cc3csc4ccccc34)C(=O)N[C@@H](CCC(N)=O)C(N)=O)NC(=O)[C@H](C(C)C)NC(=O)[C@H](Cc3ccccc3)NC(=O)[C@H](C)NC(=O)[C@H](C)NC(=O)[C@H](CCC(=O)O)NC(=O)[C@H](CC(=O)O)NC1=O)NC(=O)[C@H](C)NC(=O)[C@H](CC(=O)O)NC2=O (stereo partly drawn) [I-388, Ac-PL3-Asp-Ala-B5-Asp-Glu-Ala-Ala-Phe-Val-S8-23FF-BztA-Gln-NH2] | 10 µM (≈ 18.5 µg/mL) | 2.863
C=CC(=O)NC[C@H](NC(=O)[C@]1(C)CCCCCCC=CCCCC2(CCCC=CC[C@]3(CCCN3C(C)=O)C(=O)N[C@@H](CC(=O)O)C(=O)N[C@@H]([C@@H](C)CC)C(=O)N2)C(=O)N[C@@H](CC(=O)O)C(=O)N[C@@H](CC(=O)O)C(=O)N[C@@H](C)C(=O)N[C@@H](C)C(=O)N[C@@H](Cc2ccccc2)C(=O)N[C@@H](CCC(N)=O)C(=O)N1)C(=O)N[C@@H](Cc1csc2ccccc12)C(=O)N[C@@H](CCC(N)=O)C(N)=O (stereo partly drawn) [I-483, Ac-PL3-Asp-Ile-B5-Asp-Asp-Ala-Ala-Phe-Gln-S8-[Acryl]Dap-BztA-Gln-NH2] | 43 µM (≈ 80.1 µg/mL) | 1.845

The remaining lines, values ahead:

Solubility (Solubility in PBS) | CHI Log D (CHI Log D procedure) | SMILES
17 µM (≈ 31.4 µg/mL) | 2.868 | CC(=O)N1CCC[C@]12CC=CCCCC1(CCCC=CCCCCCC[C@@](C)(C(=O)N[C@@H](Cc3cccc(F)c3F)C(=O)N[C@@H](Cc3csc4ccccc34)C(=O)N[C@@H](CCC(N)=O)C(N)=O)NC(=O)[C@H](C(C)C)NC(=O)[C@H](Cc3ccccc3)NC(=O)[C@H](C)NC(=O)[C@H](C)NC(=O)[C@H](CCC(=O)O)NC(=O)[C@H](CC(=O)O)NC1=O)NC(=O)[C@H](C)NC(=O)[C@H](CC(=O)O)NC2=O (stereo partly drawn) [I-389, Ac-PL3-Asp-Ala-B5-Asp-Glu-Ala-Ala-Phe-Val-S8-23FF-BztA-Gln-NH2]
44 µM (≈ 82.1 µg/mL) | 2.058 | CC(=O)N1CCC[C@]12CC=CCCCC1(CCCC=CCCCCCC[C@@](C)(C(=O)N[C@@H](Cc3ccccc3)C(=O)N[C@@H](Cc3csc4ccccc34)C(=O)N[C@@H](CCC(N)=O)C(N)=O)NC(=O)[C@H](CCC(N)=O)NC(=O)[C@H](Cc3ccccc3)NC(=O)[C@H](C)NC(=O)[C@H](C)NC(=O)[C@H](CCC(=O)O)NC(=O)[C@H](CC(=O)O)NC1=O)NC(=O)[C@H](C)NC(=O)[C@H](Cc1nn[nH]n1)NC2=O (stereo partly drawn) [I-416, Ac-PL3-tetz-Ala-B5-Asp-Glu-Ala-Ala-Phe-Gln-S8-Phe-BztA-Gln-NH2]
30 µM (≈ 56 µg/mL) | 2.085 | CC(=O)N1CCC[C@]12CC=CCCCC1(CCCC=CCCCCCC[C@@](C)(C(=O)N[C@@H](Cc3ccccc3)C(=O)N[C@@H](Cc3csc4ccccc34)C(=O)N[C@@H](CCC(N)=O)C(N)=O)NC(=O)[C@H](CCC(N)=O)NC(=O)[C@H](Cc3ccccc3)NC(=O)[C@H](C)NC(=O)[C@H](C)NC(=O)[C@H](CCC(=O)O)NC(=O)[C@H](CC(=O)O)NC1=O)NC(=O)[C@H](C)NC(=O)[C@H](Cc1nn[nH]n1)NC2=O (stereo partly drawn) [I-417, Ac-PL3-tetz-Ala-B5-Asp-Glu-Ala-Ala-Phe-Gln-S8-Phe-BztA-Gln-NH2]
50 µM (≈ 91.6 µg/mL) | 1.408 | CC(=O)N1CCC[C@]12CC=CCCCC1(CCCC=CCCCCCC[C@@](C)(C(=O)N[C@@H](Cc3cn(C)cn3)C(=O)N[C@@H](Cc3csc4ccccc34)C(=O)N[C@@H](CCC(N)=O)C(N)=O)NC(=O)[C@H](CC(N)=O)NC(=O)[C@H](Cc3ccccc3)NC(=O)[C@H](C)NC(=O)[C@H](C)NC(=O)[C@H](CCC(=O)O)NC(=O)[C@H](CC(=O)O)NC1=O)NC(=O)[C@H](C)NC(=O)[C@H](CC(=O)O)NC2=O (stereo partly drawn) [I-439, Ac-PL3-Asp-Ala-B5-Asp-Glu-Ala-Ala-Phe-Asn-S8-1meH-BztA-Gln-NH2]
50 µM (≈ 91.6 µg/mL) | 1.613 | CC(=O)N1CCC[C@]12CC=CCCCC1(CCCC=CCCCCCC[C@@](C)(C(=O)N[C@@H](Cc3cn(C)cn3)C(=O)N[C@@H](Cc3csc4ccccc34)C(=O)N[C@@H](CCC(N)=O)C(N)=O)NC(=O)[C@H](CC(N)=O)NC(=O)[C@H](Cc3ccccc3)NC(=O)[C@H](C)NC(=O)[C@H](C)NC(=O)[C@H](CCC(=O)O)NC(=O)[C@H](CC(=O)O)NC1=O)NC(=O)[C@H](C)NC(=O)[C@H](CC(=O)O)NC2=O (stereo partly drawn) [I-440, Ac-PL3-Asp-Ala-B5-Asp-Glu-Ala-Ala-Phe-Asn-S8-1meH-BztA-Gln-NH2]
50 µM (≈ 92.4 µg/mL) | 1.88 | CC(=O)N1CCC[C@]12CC=CCCCC1(CCCC=CCCCCCC[C@@](C)(C(=O)N[C@@H](Cc3cccc(F)c3)C(=O)N[C@@H](Cc3c[nH]c4ccccc34)C(=O)N[C@@H](CCC(N)=O)C(N)=O)NC(=O)[C@H](CCC(N)=O)NC(=O)[C@H](Cc3ccsc3)NC(=O)[C@H](C)NC(=O)[C@H](C)NC(=O)[C@H](CCC(=O)O)NC(=O)[C@H](CC(=O)O)NC1=O)NC(=O)[C@H](C)NC(=O)[C@H](CC(=O)O)NC2=O (stereo partly drawn) [I-451, Ac-PL3-Asp-Ala-B5-Asp-Glu-Ala-Ala-3Thi-Gln-S8-3FF-Trp-Gln-NH2]
